Measurements: patent US10717734B2, “Indole and azaindole haloallylamine derivative inhibitors of lysyl oxidases and uses thereof” (PHARMAXIS LTD., priority 2016, dated 2020)
Counter-ions that a name gives are not always drawn.

How the values were obtained:
Assay type in all cases: biochemical
Human LOXL2 = Human LOXL2 (Homo sapiens (Human), UniProt Q9Y4K0); assay: LOXL2 inhibition, peroxidase-coupled Amplex Red amine oxidase assay; settings: 30 min preincubation at 37° C., putrescine substrate
Excerpt: (§1) Method to Determine the Ability of Compounds of the Invention to Inhibit LOX and LOXL1-4 from Different Sources
(§2) Lysyl oxidase (LOX) is an extracellular copper dependent enzyme which oxidizes peptidyl lysine and hydroxylysine residues in collagen and lysine residues in elastin to produce peptidyl alpha-aminoadipic-delta-semialdehydes. […] There are five LOX family members; these are LOX, LOXL1, LOXL2, LOXL3 and LOXL4. LOX and LOXL family members can be acquired as recombinant active proteins from commercial sources, or extracted from animal tissues like bovine aorta, tendons, pig skin; or prepared from cell cultures. The inhibitory effects of the compounds of the present invention were tested against the given LOX-LOXL preparation using a high-throughput coupled colorimetric method (Holt A. and Palcic M., A peroxidase-coupled continuous absorbance plate-reader assay for flavin monoamine oxidases, copper-containing amine oxidases and related enzymes. Nat. Protoc. 2006; 1: 2498-2505). The assay was developed using either 384 or 96 well format. Briefly, in a standard 384 well plate assay 25 μL of a dilution of any of the isoenzymes and orthologues in 1.2 M urea, 50 mM sodium borate buffer (pH 8.2) were added into each well in the presence of 1 μM mofegiline and 0.5 mM pargyline (to inhibit SSAO and MAO-B and MAO-A, respectively). Test compounds were dissolved in DMSO and tested in a Concentration Response Curve (CRC) with 11 data points, typically in the micromolar or nanomolar range after incubation with the enzyme for 30 min at 37° C. Twenty five μL of a reaction mixture containing twice the KM concentration of putrescine (Sigma Aldrich, e.g. 20 mM for LOX, or 10 mM for LOXL2 and LOXL3), 120 μM Amplex Red (Sigma Aldrich) and 1.5 U/mL horseradish peroxidase (Sigma Aldrich) prepared in 1.2 M urea, 50 mM sodium borate buffer (pH 8.2) were then added to the corresponding wells. The above volumes were doubled in the case of 96 wells plate. The fluorescence (RFU) was read every 2.5 min for 30 min at a range of temperatures from 37° to 45° C., excitation 565 nm and emission 590 (Optima; BMG labtech). The slope of the kinetics for each well was calculated using MARS data analysis software (BMG labtech) and this value was used to deduce the IC50 value (Dotmatics).

Bovine LOX = Bovine LOX (Bos taurus (Bovine), UniProt P33072); assay: LOX inhibition, peroxidase-coupled Amplex Red amine oxidase assay; settings: 30 min preincubation at 37° C., putrescine substrate
Excerpt: as §1
as §2, with “Test compounds were dissolved in DMSO and tested in a Concentration Response Curve (CRC) with 11 data points, typically in the micromolar or nanomolar range after incubation with the enzyme for 30 min at 37° C.” left out

[1] = biological target: Human recombinant SSAO/VAP-1 (Homo sapiens (Human), UniProt Q16853); assay: Human recombinant SSAO/VAP-1 amine oxidase inhibition; settings: 30 min preincubation at 37° C., 600 μM benzylamine
Experimental: Method to Determine the Ability of Compounds of Formula I to Inhibit Human Recombinant SSAO/VAP-1
Human recombinant SSAO/VAP-1 amine oxidase activity was determined using the coupled colorimetric method as described for monoamine oxidase, copper-containing amine oxidases and related enzymes (Holt A. and Palcic M., A peroxidase-coupled continuous absorbance plate-reader assay for flavin monoamine oxidases, copper-containing amine oxidases and related enzymes. Nat Protoc 2006; 1: 2498-2505). Briefly, a cloned cDNA template corresponding to residues 34-763 of human SSAO/VAP-1, and incorporating a mouse Ig kappa (κ) signal sequence, N-terminal flag epitope tag and tobacco etch virus (TEV) cleavage site, was assembled in a mammalian expression vector (pLO-CMV) by Geneart AG. This vector containing human SSAO/VAP-1 residues was transfected into CHO-K1 glycosylation mutant cell line, Lec 8. A clone stably expressing human SSAO/VAP-1 was isolated and cultured in large scale. Active human SSAO/VAP-1 was purified and recovered using immunoaffinity chromatography. This was used as the source for SSAO/VAP-1 activity. A high-throughput colorimetric assay was developed using either 96 or 384 well format. Briefly, in a standard 96 well plate assay 50 μL of purified human SSAO/VAP-1 (0.25 μg/mL) in 0.1 M sodium phosphate buffer (pH 7.4) was added into each well. Test compounds were dissolved in DMSO and tested in a Concentration Response Curve (CRC) with 4-11 data points, typically in the micromolar or nanomolar range after incubation with human SSAO/VAP-1 for 30 min at 37° C. After 30 min incubation, 50 μL of the reaction mixture containing 600 μM benzylamine (Sigma Aldrich), 120 μM Amplex Red (Sigma Aldrich) and 1.5 U/mL horseradish peroxidase (Sigma Aldrich) prepared in 0.1 M sodium phosphate buffer (pH 7.4) were added to the corresponding well. The fluorescence unit (RFU) was read every 2.5 min for 30 min at 37° C. excitation 565 nm and emission 590 (Optima; BMG labtech). The slope of the kinetics for each well was calculated using MARS data analysis software (BMG labtech) and this value was used to deduce the IC50 value (Dotmatics).

Recombinant human MAO-B = Recombinant human MAO-B (Homo sapiens (Human), UniProt P27338); assay: Human recombinant MAO-B inhibition; settings: benzylamine 100 μM
Experimental: Method to Determine the Ability of Compounds of Formula I to Inhibit Human Recombinant MAO-B
The specificity of the compounds of this invention was tested by determining their ability to inhibit MAO-B activities in vitro. Recombinant human MAO-B (0.06 mg/mL; Sigma Aldrich) was used as source of MAO-B enzyme activities. The assay was performed in a similar way as for human SSAO/VAP-1 (Example 36) except, the substrate benzylamine was used at 100 μM.

Sequence of Human recombinant SSAO/VAP-1 (Q16853 34-763): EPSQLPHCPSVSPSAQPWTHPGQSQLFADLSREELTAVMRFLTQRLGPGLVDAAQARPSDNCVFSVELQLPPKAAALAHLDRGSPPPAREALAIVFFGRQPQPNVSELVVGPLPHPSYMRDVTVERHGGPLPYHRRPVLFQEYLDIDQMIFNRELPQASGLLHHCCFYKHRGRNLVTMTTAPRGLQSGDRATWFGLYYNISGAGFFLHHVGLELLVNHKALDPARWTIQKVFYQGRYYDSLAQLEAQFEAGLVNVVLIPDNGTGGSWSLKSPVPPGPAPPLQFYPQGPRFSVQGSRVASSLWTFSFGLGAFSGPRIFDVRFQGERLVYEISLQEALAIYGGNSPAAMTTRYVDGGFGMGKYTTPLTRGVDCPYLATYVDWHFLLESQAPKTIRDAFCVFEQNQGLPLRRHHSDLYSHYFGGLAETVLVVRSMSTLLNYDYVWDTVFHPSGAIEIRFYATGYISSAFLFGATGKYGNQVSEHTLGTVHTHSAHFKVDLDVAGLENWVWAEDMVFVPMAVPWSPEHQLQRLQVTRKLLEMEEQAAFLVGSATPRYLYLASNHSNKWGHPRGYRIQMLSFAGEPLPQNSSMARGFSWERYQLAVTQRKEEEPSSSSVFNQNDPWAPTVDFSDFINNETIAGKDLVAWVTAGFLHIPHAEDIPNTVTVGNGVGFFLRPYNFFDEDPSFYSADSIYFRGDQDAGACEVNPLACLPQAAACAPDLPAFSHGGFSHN
Sequence of Human LOXL2 (Q9Y4K0 26-774): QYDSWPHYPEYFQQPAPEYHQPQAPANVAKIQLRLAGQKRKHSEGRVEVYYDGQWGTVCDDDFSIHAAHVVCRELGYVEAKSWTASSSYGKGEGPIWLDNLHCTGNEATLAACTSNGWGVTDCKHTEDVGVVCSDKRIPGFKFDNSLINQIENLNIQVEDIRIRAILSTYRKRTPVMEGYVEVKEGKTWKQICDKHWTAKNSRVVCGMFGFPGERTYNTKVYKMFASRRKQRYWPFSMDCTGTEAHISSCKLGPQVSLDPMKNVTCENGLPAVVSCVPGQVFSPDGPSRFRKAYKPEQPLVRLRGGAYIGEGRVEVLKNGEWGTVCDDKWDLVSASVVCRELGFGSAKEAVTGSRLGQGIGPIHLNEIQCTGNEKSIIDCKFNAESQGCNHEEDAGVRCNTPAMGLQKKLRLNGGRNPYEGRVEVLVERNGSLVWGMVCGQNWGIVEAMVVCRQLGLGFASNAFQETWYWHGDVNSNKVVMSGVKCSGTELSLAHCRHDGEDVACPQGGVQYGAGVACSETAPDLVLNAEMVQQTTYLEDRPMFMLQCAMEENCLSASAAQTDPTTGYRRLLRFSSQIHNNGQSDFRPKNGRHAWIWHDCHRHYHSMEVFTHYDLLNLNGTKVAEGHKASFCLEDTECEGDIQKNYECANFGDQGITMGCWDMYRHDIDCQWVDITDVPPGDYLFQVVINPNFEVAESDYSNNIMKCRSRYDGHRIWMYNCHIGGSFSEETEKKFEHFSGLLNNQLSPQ
Sequence of Bovine LOX (P33072 170-418): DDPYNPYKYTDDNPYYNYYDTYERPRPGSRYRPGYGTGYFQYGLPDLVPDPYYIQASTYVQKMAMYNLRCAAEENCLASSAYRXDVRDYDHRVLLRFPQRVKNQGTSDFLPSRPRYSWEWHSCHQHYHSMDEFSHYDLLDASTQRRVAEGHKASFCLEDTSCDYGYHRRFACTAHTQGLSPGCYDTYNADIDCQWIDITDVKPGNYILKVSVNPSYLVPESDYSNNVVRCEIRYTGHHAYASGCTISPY
Sequence of Recombinant human MAO-B (P27338 whole entry): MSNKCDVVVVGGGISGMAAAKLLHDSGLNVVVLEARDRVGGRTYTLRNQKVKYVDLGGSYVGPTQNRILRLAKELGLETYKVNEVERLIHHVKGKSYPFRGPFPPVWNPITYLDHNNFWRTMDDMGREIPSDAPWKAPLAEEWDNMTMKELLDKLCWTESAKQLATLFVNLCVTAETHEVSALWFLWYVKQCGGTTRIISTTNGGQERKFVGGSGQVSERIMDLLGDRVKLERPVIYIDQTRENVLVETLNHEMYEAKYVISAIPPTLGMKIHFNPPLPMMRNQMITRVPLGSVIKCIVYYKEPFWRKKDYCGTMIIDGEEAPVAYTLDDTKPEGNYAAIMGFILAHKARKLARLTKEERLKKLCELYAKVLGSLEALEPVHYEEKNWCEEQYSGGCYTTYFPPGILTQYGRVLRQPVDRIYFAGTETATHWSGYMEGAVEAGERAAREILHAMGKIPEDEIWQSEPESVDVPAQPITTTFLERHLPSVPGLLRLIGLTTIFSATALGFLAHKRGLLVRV

SMILES | IC50 (Human LOXL2) [nM] | IC50 (Bovine LOX) [nM] | IC50 [1] [nM] | IC50 (Recombinant human MAO-B) [nM]
CC(C)c1c(Cc2ccc(S(=O)(=O)C(C)C)nc2)c2ncccc2n1C/C(F)=C/CN [Compound 41, (Z)-3-fluoro-4-(2-isopropyl-3-((6-(isopropylsulfonyl)pyridin-3-yl)methyl)-1H-pyrrolo[3,2-b]pyridin-1-yl)but-2-en-1-amine hydrochloride] | < 300 | > 300 | > 3000 | > 3000
Cc1ccc2c(n1)c(Cc1ccc(S(=O)(=O)N(C)C)cn1)c(C)n2C/C(F)=C/CN [Compound 15, (Z)-6-((1-(4-amino-2-fluorobut-2-en-1-yl)-2,5-dimethyl-1H-pyrrolo[3,2-b]pyridin-3-yl)methyl)-N,N-dimethylpyridine-3-sulfonamide trihydrochloride] | < 300 | > 300 | > 3000 | > 3000
Cc1cc(S(C)(=O)=O)ccc1Cc1c(C)n(C/C(F)=C/CN)c2cccnc12 [Compound 34, (Z)-3-fluoro-4-(2-methyl-3-(2-methyl-4-(methylsulfonyl)benzyl)-1H-pyrrolo[3,2-b]pyridin-1-yl)but-2-en-1-amine dihydrochloride] | < 300 | > 300 | > 3000 | > 3000
COC(=O)c1ccc2c(c1)c(Cc1ccc(S(=O)(=O)N(C)C)cc1)c(C)n2C/C(F)=C/CN [Compound 2, Methyl (Z)-1-(4-amino-2-fluorobut-2-en-1-yl)-3-(4-(N,N-dimethylsulfamoyl)benzyl)-2-methyl-1H-indole-5-carboxylate hydrochloride] | < 300 | > 300 | > 3000 | > 3000
CN(C)C(=O)c1c(Cc2ccc(S(=O)(=O)N(C)C)cc2)c2ccccc2n1C/C(F)=C/CN [Compound 5, (Z)-1-(4-amino-2-fluorobut-2-en-1-yl)-3-(4-(N,N-dimethylsulfamoyl)benzyl)-N,N-dimethyl-1H-indole-2-carboxamide hydrochloride] | < 300 | > 300 | > 3000 | > 3000
Cc1c(Cc2ccc(S(C)(=O)=O)c(Cl)c2)c2ncccc2n1C/C(F)=C/CN [Compound 35, (Z)-4-(3-(3-chloro-4-(methylsulfonyl)benzyl)-2-methyl-1H-pyrrolo[3,2-b]pyridin-1-yl)-3-fluorobut-2-en-1-amine dihydrochloride] | < 300 | > 300 | > 3000 | > 3000
CC(C)c1c(C(O)c2ccc(S(C)(=O)=O)nc2)c2ncccc2n1C/C(F)=C/CN (stereo not shown) [Compound 42, (Z)-(1-(4-amino-2-fluorobut-2-en-1-yl)-2-isopropyl-1H-pyrrolo[3,2-b]pyridin-3-yl)(6-(methylsulfonyl)pyridin-3-yl)methanol dihydrochloride] | < 300 | > 300 | > 3000 | > 3000
Cc1c(Cc2ccc(S(=O)(=O)N(C)C)cc2)c2ccccc2n1C/C(F)=C/CN [Compound 26, (Z)-4-((1-(4-amino-2-fluorobut-2-en-1-yl)-2-methyl-1H-indol-3-yl)methyl)-N,N-dimethylbenzene-sulfonamide hydrochloride] | < 300 | > 300 | > 3000 | > 3000
Cc1ccc2c(n1)c(Cc1ccc(S(C)(=O)=O)nc1)c(C)n2C/C(F)=C/CN [Compound 13, (Z)-4-(2,5-dimethyl-3-((6-(methylsulfonyl)pyridin-3-yl)methyl)-1H-pyrrolo[3,2-b]pyridin-1-yl)-3-fluorobut-2-en-1-amine trihydrochloride] | < 300 | > 300 | > 3000 | > 3000
Cc1c(Cc2ccc(S(C)(=O)=O)nc2)c2nc(C(C)(F)F)ccc2n1C/C(F)=C/CN [Compound 30, (Z)-4-(5-(1,1-difluoroethyl)-2-methyl-3-((6-(methylsulfonyl)pyridin-3-yl)methyl)-1H-pyrrolo[3,2-b]pyridin-1-yl)-3-fluorobut-2-en-1-amine trihydrochloride] | < 300 | > 300 | > 3000 | > 3000
Cc1c(Cc2ccc(S(=O)(=O)N(C)C)cc2)c2cc(C(N)=O)ccc2n1C/C(F)=C/CN [Compound 4, (Z)-1-(4-amino-2-fluorobut-2-en-1-yl)-3-(4-(N,N-dimethylsulfamoyl)benzyl)-2-methyl-1H-indole-5-carboxamide hydrochloride] | < 300 | > 300 | > 3000 | > 3000
Cc1cc2c(cn1)c(Cc1ccc(S(C)(=O)=O)cc1)c(C)n2C/C(F)=C/CN [Compound 36, (Z)-4-(2,6-dimethyl-3-(4-(methylsulfonyl)benzyl)-1H-pyrrolo[3,2-c]pyridin-1-yl)-3-fluorobut-2-en-1-amine dihydrochloride] | < 300 | > 300 | > 3000 | > 3000
Cc1cc2c(nn1)c(Cc1ccc(S(=O)(=O)N(C)C)cc1)c(C)n2C/C(F)=C/CN [Compound 37, (Z)-4-((5-(4-amino-2-fluorobut-2-en-1-yl)-3,6-dimethyl-5H-pyrrolo[3,2-c]pyridazin-7-yl)methyl)-N,N-dimethylbenzenesulfonamide dihydrochloride] | < 300 | > 300 | > 3000 | > 3000
